ChEMBL document CHEMBL1127535, “Molecular similarity, quantitative chirality, and QSAR for chiral drugs” (J Med Chem, 1994)

Assays:
[1] = biological target: D(2) dopamine receptor (Rattus norvegicus) (UniProt P61169); assay: Displacement of spiperone from dopamine receptor D2 of rat brain membrane
[2] = biological target: Sigma non-opioid intracellular receptor 1 (Rattus norvegicus) (UniProt Q9R0C9); assay: Displacement of (+)-3PPP from sigma receptor of rat brain membrane
Sigma non-opioid intracellular receptor 1 (Rattus norvegicus), sequence (Q9R0C9 whole entry): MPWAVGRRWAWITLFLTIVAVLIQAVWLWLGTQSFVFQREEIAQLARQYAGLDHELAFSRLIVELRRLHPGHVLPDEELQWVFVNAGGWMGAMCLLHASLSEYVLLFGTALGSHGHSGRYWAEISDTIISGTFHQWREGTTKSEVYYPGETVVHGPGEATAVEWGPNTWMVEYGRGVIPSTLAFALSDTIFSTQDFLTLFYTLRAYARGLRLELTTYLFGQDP

D(2) dopamine receptor (Rattus norvegicus), sequence (P61169 whole entry): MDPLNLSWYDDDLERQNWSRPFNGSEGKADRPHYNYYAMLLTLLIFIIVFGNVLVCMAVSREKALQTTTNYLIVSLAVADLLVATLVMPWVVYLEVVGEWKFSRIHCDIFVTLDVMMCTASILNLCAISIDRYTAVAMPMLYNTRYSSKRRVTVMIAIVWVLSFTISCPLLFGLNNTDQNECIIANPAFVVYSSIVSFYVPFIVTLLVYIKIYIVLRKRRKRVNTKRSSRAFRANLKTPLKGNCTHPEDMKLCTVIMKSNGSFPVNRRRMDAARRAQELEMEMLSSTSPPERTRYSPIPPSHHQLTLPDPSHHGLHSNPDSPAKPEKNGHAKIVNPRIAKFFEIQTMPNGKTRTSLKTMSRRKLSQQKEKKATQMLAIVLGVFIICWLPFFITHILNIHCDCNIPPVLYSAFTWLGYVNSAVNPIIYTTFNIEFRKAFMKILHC

Structure (SMILES) | Log IC50 [1] | Log IC50 [2]
CCc1ccc(N2CCC[C@H](c3cccc(O)c3)C2)cc1 | 0.09 µM | 2.1 µM
CCCCN1CCC[C@H](c2cccc(O)c2)C1 | 0.43 µM | 2.05 µM
CCCCN1CCC[C@@H](c2cccc(O)c2)C1 | 0.56 µM | 1.51 µM
CC(C)N1CCC[C@@H](c2cccc(O)c2)C1 | 0.45 µM | 0.68 µM
CCc1ccc(N2CCC[C@@H](c3cccc(O)c3)C2)cc1 | 1.36 µM | 1.8 µM
CC(C)N1CCC[C@H](c2cccc(O)c2)C1 | 1.08 µM | 0.61 µM
Oc1cccc([C@H]2CCCNC2)c1 | 0.36 µM | 0.66 µM
CN1CCC[C@H](c2cccc(O)c2)C1 | 0.61 µM | 0.43 µM
Oc1cccc([C@@H]2CCCNC2)c1 | 0.24 µM | 1.19 µM
CCCN1CCC[C@@H](c2cccc(O)c2)C1 | – | 0.81 µM
CCCN1CCC[C@H](c2cccc(O)c2)C1 | – | 1.52 µM
